Test results reported in patent US20210215714A1, “COMPLEMENT ALTERNATIVE PATHWAY-ASSOCIATED NEPHROPATHY BIOMARKERS” (Achillion Pharmaceuticals, Inc., priority 2018, published 2021).

System: Bb
Assay: Phase 2a study: Bb levels in plasma
Assay type: in vivo, human
Conditions: 14-day treatment, patients A-F
Description: Systemic complement proteins were measured in serum and plasma including serum Ba, plasma Bb, serum C3, serum Factor D, serum C4, and % Fragment C3.

CC(=O)c1nn(CC(=O)N2C[C@H](F)C[C@H]2C(=O)Nc2cccc(Br)n2)c2ccc(-c3cnc(C)nc3)cc12 [Compound 1, (2S,4R)-1-(2-(3-acetyl-5-(2-methylpyrimidin-5-yl)-1H-indazol-1-yl)acetyl)-N-(6-bromopyridin-2-yl)-4-fluoropyrrolidine-2-carboxamide]
Plasma Bb: reduced
